Experimental data from a melting point compilation (Tetko et al.; mined from patent text by program, amines drawn as free bases though some values may be those of a salt).

SMILES | melting point
O=C(O)CCCCCCCCCCCCCCCCC(=O)n1nnc2ccccc21 | 105 °C
Oc1cccc2c1c1ccccc1n2Cc1ccccc1 | 119 to 122 °C
Cc1cc(C(C)N(O)C(N)=O)c(C)o1 (stereo unspecified) | 145 to 146 °C
CC#CC(O)(C#CC)C1(Cl)CC(c2ccccc2)=CC=C1N (stereo unspecified) | 112 to 114 °C
O=C(c1ccccc1)N(CCCn1cncn1)C1=Nc2cccc3cccc1c23 | 140 to 141 °C
CCn1c(=O)c2cccc3c2n(c1=O)-c1cc(C(F)(F)F)ccc1S3 | 150 to 152 °C
COc1c(N2CCC(N)C2)c(F)cc2c(=O)c(C(=O)O)cn(C3CC3)c12 (stereo unspecified) | 208 to 212 °C
CCCOc1ccccc1-c1cccc(=O)[nH]1 | 134 to 136 °C
Cc1ccc(S(=O)(=O)OCC2(C)Cc3cc(Cl)cc(O)c3O2)cc1 (stereo unspecified) | 135 to 137 °C
Cc1csc2[nH]cc(C(=O)c3ccc(Cl)cc3)c12 | 223 °C
Nc1ccc(CCc2ccc(Cl)c(Cl)c2)cc1O | 147 to 149 °C
CCCCOC(=O)NCCC(=O)O | 50.5 °C
Oc1ccc(CCCc2ccc(O)cc2O)cc1 | 92 to 93 °C
Cc1nc2c(NC(=O)C(C)(C)C)cccn2c1Cl | 117 to 118 °C
O=C(O)Cc1cc(C(=O)c2ccccc2F)ccc1O | 102 °C
C(=C\c1nc(COc2ccc(CCCn3cccc3)cc2)co1)/c1ccccc1 | 108 to 109 °C
CCCCc1nc2ccccc2n1Cc1ccc(-c2ccccc2-c2nnn[nH]2)cc1 | 230 to 232 °C
COc1ccc(-c2c(Cl)c(CN3C(=O)CCC3=O)nc3sc4c(c23)CCN(Cc2ccccc2)C4)cc1OC | 128 to 130 °C
CCOC(=O)c1ncn2c1c(S)nc1ccccc12 | 251 to 253 °C
CCCCCCn1ccc(=O)c(OCc2ccccc2)c1C | 46 °C
OC[C@H]1C[C@@H](n2cnc3cc(Cl)c(Cl)cc32)[C@H](O)[C@@H]1O | 222 to 225 °C
COc1cccc(CN2CCC3(CC2)CSC2=C(O3)c3ccccc3C(=O)C2=O)c1 | 129 to 131 °C
C=C(Cc1ccccc1)C(=O)NN1CCN(C(=O)OC(C)(C)C)CC1 | 160 °C
CCCCc1nnc(-c2ccco2)n1Cc1ccc(NC(=O)c2ccccc2C(=O)O)cc1 | 170 to 171 °C
O=C(NNc1ccc(C=CC(c2cc(Cl)c(Cl)c(Cl)c2)C(F)(F)F)cc1)C1CC1 (stereo unspecified) | 138 to 140 °C
N#Cc1ccccc1Cn1cc(C(=O)C(=O)NC2=CC(=O)OC2)c2ccccc21 | 229 to 231 °C

SMILES | melting point
CC(=O)Oc1cccc(C(Br)C(Br)c2ccccc2)c1 (stereo unspecified) | 156 to 157 °C
CC(C)c1cc(CO)n(Cc2ccc(Cl)cc2Cl)n1 | 89 to 90 °C
COc1ccc(Br)c(C=O)c1O | 102 to 103 °C
CSc1ccc(C(N)=O)c([N+](=O)[O-])c1 | 176 to 178 °C
Cn1cc(CNC(=O)c2cc(N3CCN(Cc4ccc(F)cc4)C3=O)n[nH]2)cn1 | 244 to 245 °C
CC(=O)OCCCCCC1CC2=CC(=O)CCC2C2C(F)CC3(C)C(=O)CCC3C12 (stereo unspecified) | 78.4 °C
CC(C)Cn1cnc2c(N)nc3ccc(-c4ccccc4)cc3c21 | 203 to 204 °C
Nc1cc(C(F)(F)F)nc(C(=O)O)c1Cl | 131 to 133 °C
O=Cc1ccc(OCc2ccccc2)c2c1OCO2 | 81 to 82 °C
Cc1sc2c(c1C(=O)c1ccccc1)CCC2C(N)=O (stereo unspecified) | 165 to 168 °C
COC(=O)/C(=C/c1cccc(C=O)c1)NC(=O)OCc1ccccc1 | 77 to 83 °C
Cc1noc(NS(=O)(=O)c2ccccc2-c2ccc(-c3ncco3)cc2CC(=O)N(C)C)c1C | 89 to 96 °C
COC(=O)Cn1cc([C@H]2CCC3C4CC=C5C[C@@H](O)CC[C@]5(C)C4CC[C@@]32C)nn1 (stereo partly specified) | 221 to 223 °C
C=CCN(CC=C)Cc1nc(-c2ncn3c2[C@@H]2CCN2C(=O)c2c-3ccc(F)c2Cl)no1 | 103 to 104 °C
COc1cc2ncc(C#N)c(Nc3ccc(F)c(Cl)c3)c2cc1NC(=O)C=CCN1CCC(O)(O)CC1 | 225 to 230 °C
CCCCCCCC1(CCCCCCC)c2cc(Br)ccc2-c2ccc(Br)cc21 | 45 to 46 °C
CCCCn1c(-c2ccc(OC)cc2)nc2c3ccccc3ccc21 | 99.5 to 100 °C
NS(=O)(=O)c1ccc(-c2cnn(CC3=CCCCC3)c(=O)c2-c2ccc(F)cc2)cc1 | 192 to 193 °C
CCCCCCCCON1C(C)(C)CC(OC(=O)COc2ccc(-c3nc(-c4ccc(C)cc4C)nc(-c4ccc(C)cc4C)n3)c(O)c2)CC1(C)C | 86 to 90 °C
CN(Cc1ccc(NC(=O)C2=Cc3cc(Br)ccc3S(=O)(=O)CC2)cc1)C1CCOCC1 | 232 to 235 °C
CSc1nnc2n1C=Cc1cc(C)ccc1C2 | 161 to 162 °C
CCc1cn2ccccc2c1S(=O)(=O)c1ccc(OCCCn2ccnc2)cc1 | 130 to 131 °C
Cc1c(Cl)cccc1N=C1NCCN1C(=O)c1ccc(C#N)cc1 | 224 to 228 °C
CCOC(=O)c1ccc(NC(=O)c2cc(C)no2)cc1 | 160 to 163 °C
Nn1cccc1C(=O)c1cccs1 | 81 to 82 °C
CCOC(=O)C(=O)c1csc(NC(=O)Nc2ccccc2)n1 | 217 to 220 °C

SMILES | melting point
COc1cc(C=C2N=C(C)OC2=O)ccc1OC(C)=O | 205 to 206 °C
CN1Cc2cscc2Nc2ccccc21 | 110 to 112 °C
COc1cc(O)cc2nc(-c3ccc(O)cc3)oc12 | 225 to 228 °C
O=[N+]([O-])c1ccccc1/C=C/c1ccc(Cl)cc1[N+](=O)[O-] | 158 to 159 °C
C#CCNC(=O)Oc1cccc2c1OC(C)(C)O2 | 107 to 109 °C
COc1ccccc1N1CCN(CCCn2c(=O)[nH]c3cscc3c2=O)CC1 | 187 to 188 °C
COc1ccc(-c2cc(C)c(C(=O)NCCCCc3cccnc3)c(C)c2)cc1OC | 117 to 119 °C
CCCCCCCCCCCCc1nnn(C(CCC)C(=O)Nc2c(OC)cc(OC)cc2OC)n1 (stereo unspecified) | 146 to 148 °C
C[C@H](NC(=O)c1c[nH]c2ncc(-c3nn(C)c4cc(Cl)ccc34)nc12)C(C)(C)C#N | 322 to 328 °C
Clc1ccc(C2CCNCC2)cc1 | 143 °C
COc1cc(C(C)=O)ccc1OCCCN1CCN(c2nn(C(=O)c3ccccc3)c3cc(F)ccc23)CC1 | 138 to 140 °C
CCOc1nc(C)nc(N)n1 | 172 to 174 °C
O=C(c1ccco1)N1CCc2cc(S(=O)(=O)n3cc(-c4ccccc4)[nH]c3=O)ccc21 | 256 to 257 °C
COc1cc(CC(=O)CCNCCOc2ccc(C(=O)O)cc2OC)ccc1NC(=O)Nc1ccccc1C | 115 to 118 °C
CCCCn1cc(C(=O)OCC)c(NC(=S)Nc2ccccc2)n1 | 93 to 95 °C
Cc1ccc(CCc2cc3c(s2)-n2c(C)nnc2CN=C3c2ccccc2Cl)cc1 | 160 to 162 °C
O=C(O)c1ccc(Sc2ccc(O)cc2)cc1 | 196 to 200 °C
CSc1cc2c(cc1C(F)(F)F)N(C(=O)Nc1ccc(C(=O)O)cc1)CC2 | > 200 °C
CC(=O)Nc1ccc(OCC(=O)NC2CCN(Cc3ccc(Cl)c(Cl)c3)CC2)cc1 | 177 to 178 °C
CCCCCCCCS(=O)(=O)CCCC(=O)OO | 113 to 115 °C
COc1cc(Nc2nccc(-c3ccc(O)cc3)n2)cc(OC)c1OC | 200 to 202 °C
COc1cc2c(cc1CCNC(=O)Cc1ccccc1)CCC2 | 135 °C
O=C1NCCNN1c1cc(C(F)(F)F)cc(Cl)n1 | 191 to 192 °C
COc1cc2c(c(-c3cc(Cl)ccc3Cl)c1)OC(CN)C2 (stereo unspecified) | 140 to 142 °C
Clc1cc(-c2ccccc2)ccn1 | 70 to 72 °C
CN1CCC(OC(=O)COC(=O)c2ccccc2Nc2ccnc3c(C(F)(F)F)cccc23)(c2ccccc2)CC1 | 144 to 145 °C

SMILES | melting point
CC(C)(C)c1ccc(CCOc2ncnc3cnccc23)cc1 | 59 to 60 °C
NC(=O)c1ccc2nc3sc(-c4ccccc4)cc3c(=O)n2c1 | 348 to 352 °C
CNC=Nc1cnc2ccccc2c1 | 142 to 143 °C
CC(=O)NC(CSCc1ccc(-c2nc(-c3ccccc3)cc(-c3ccccc3)n2)cc1)C(=O)O (stereo unspecified) | 223 to 226 °C
COC(=O)c1ccc(-c2nnc(-c3cccc(NS(=O)(=O)c4ccc(C)cc4)c3)o2)cc1 | 227 to 228 °C
CC(=O)O[C@H]1C=C[C@@H](O)C1 | 48 to 49 °C
CCOC(=O)c1cn(Cc2ccccc2)nc1OCc1ccc(OCc2nc(-c3ccco3)oc2C)c(O)c1 | 134 to 135 °C
Cc1cc([N+](=O)[O-])c(Cl)c([N+](=O)[O-])c1S(=O)(=O)Cl | 105 to 107 °C
CC1(C)CC(=O)Nc2cc3nc(O)[nH]c3cc21 | > 300 °C
COC(C)(C)C(Cl)=NO | 95 °C
CCOC(=O)c1c(N)nc(C)c(C(=O)CCCCCCCCCCBr)c1-c1cccc([N+](=O)[O-])c1 | 73 to 74 °C
CC(C)(C)OC(=O)N1CCC(c2nc(-c3ccc(-c4ccccc4)cc3)c[nH]2)CC1 | 120 to 122 °C
CCOC(=O)CCC(=O)c1cnc2c(OC)cccc2c1Nc1ccccc1C | 210 to 211 °C
CNC(=O)c1cc(NCc2c(C)cccc2C)c2nc(C)n(C)c2c1 | 252 to 253 °C
CN(c1cccc2cc(-c3nccs3)[nH]c12)S(=O)(=O)c1ccsc1CS(C)(=O)=O | 253 °C
OC12CCCCOC1C(OCc1ccccc1)C(OCc1ccccc1)C(OCc1ccccc1)C2OCc1ccccc1 (stereo unspecified) | 106 °C
CCCCN1CCn2c1nc(C(=O)NCc1ccc(F)cc1-n1cnc(C)n1)c(OCc1ccccc1)c2=O | 172 to 173 °C
CC(C)c1cc(C(=O)Nc2cccc(C(=O)O)c2)oc1C(C)C | 244 to 245 °C
COc1cc2c(c(Cl)c1Cl)S(=O)(=O)C(c1ccccc1F)=C2 | 267 to 268 °C
CN(C)C(=S)Oc1ccc(C(=O)c2ccc([N+](=O)[O-])cc2)cc1 | 168 °C
Clc1ccc(C(Cl)Cl)c(C(Cl)Cl)c1 | 63 to 64 °C
O=c1c2ccccc2c(Br)cn1C1CN2CCC1CC2 (racemic) | 208 to 209 °C
O=CN(O)C1(CS(=O)(=O)c2ccc(Oc3ccc(OC(F)(F)F)cc3)cc2)CCC(C(=O)O)CC1 (stereo unspecified) | 207 °C
